Measurements taken from patent US9447447B2, “Method and apparatus for testing cardiotoxicity and evaluating cardiomyocytes” (National University Corporation Tokyo Medical and Dental …, priority 2010, dated 2016).

Columns and labels:
[1] = system: human ES cell-derived myocardial clusters
Excerpt: They were received in raw and recovered using a glass capillary (Vitrolife), cultured in a medium plus 20% inactivated FBS, 1% non-essential amino acids, 1% penicillin-streptomycin, and 0.2% β-mercaptoethanol in DMEM (all purchased from Invitrogen).
Collected clusters were then placed in a multi-electrode tip (Alfa Med Scientific). The day on which they were placed was set to Day 0. Clusters for which a 1st peak of an extracellular potential (FP) of 200 mV or more was acquired on Day 3 was used for data acquisition. A multi-electrode membrane potential measurement system (Nikkyo Technos Corp.) was used to acquire data.
Pre-agent application data (called ‘Before’) was acquired for 10 minutes before agent application. The agent was dissolved in deionized distilled water (DDW) or DMSO, and diluted in PBS before its application. […] Extracellular potential duration (FPD) and STV (short term variability) of the FPD was calculated from the acquired data.
A steep downward peak of the FP corresponds to the inflow of Na^+. A gradual upward peak corresponds to the outflow of K^+. The FPD was defined as the time between the Na^+ and K^+ peaks. In addition, the STV of the FPD was evaluated as the variation between beats of FPD. STV was calculated by the following equation.
[formula] The increase in the variation between the FPDs can be evaluated as an increase in the value of STV. […]

[2] = both in vivo and in vitro; cited from earlier work

position in two-dimensional plot (X: FPD score, FPD extended by 10% or more; Y: STV score, STV increased by 100% or more) [1] | Compound | known effect on APD and STV [2]
upper left corner | COc1ccc([C@@H]2Sc3ccccc3N(CCN(C)C)C(=O)[C@@H]2OC(C)=O)cc1 [Diltiazem] | –
upper right corner | CC(C)NCC(O)c1ccc(NS(C)(=O)=O)cc1 (racemic) [DL-sotalol] | increase the APD and STV
